Where two headings read alike, the source gives them in different places.
What was measured:
[1] = cited from earlier work
[2] = test system: S. aureus mutant strain R15.5; experiment: microbe, parasite or virus in culture; type: cell-based, Staphylococcus aureus; conditions: for MIC: 24 h; for MIC Ratio (R15.1 to wt): ratio of MICs, mutant to wt
Experimental: (§1) All experiments were performed with S. aureus ATCC6538P. The strain was propagated at 37 °C in Mueller–Hinton Broth (BD Difco^TM) containing 20 mg/L of CaCl2 and 10 mg/L of MgCl2 (MHBC medium). For selection of resistant strains by direct plating, S. aureus cultures were grown until OD600 of 0.7, corresponding to 5 × 10^8 CFU/mL, centrifuged, and resuspended with fresh medium to 1 × 10^10 CFU/mL. Then, 100 µL were spread on Muller–Hinton Agar (BD Difco^TM) supplemented with 160 µg/mL or 640 µg/mL of NAI-112 and incubated at 37 °C. Colonies were scored after 10 days. For selection of resistant mutants by serial passages, MHBC medium containing serial, twofold dilutions of NAI-112, starting from 512 µg/mL down to 0.5 µg/mL, was inoculated with 1 × 10^5 CFU/mL in a 96-well microtiter plate. Cultures were incubated overnight at 37 °C. The culture at the highest concentration that supported growth was diluted to 1 × 10^5 CFU/mL with fresh medium and added to a fresh plate containing serial dilutions of NAI-112 as before, followed by overnight incubation. This process was continued for 15 passages. From cultures at passage 8 (grown at 64 µg/mL) and passage 15 (grown at 256 µg/mL), single colonies were isolated and named R8.1 and R8.2 (from the eighth series) and R15.1–15.5 (from the fifteenth series).
(§2) MICs were determined by the broth microdilution methodology in sterile 96-well microtiter plates according to Clinical and Laboratory Standards Institute (CLSI) guidelines, as described by Iorio et al.. When indicated, bovine serum albumin was added to MHBC medium at 0.02% (w/v). […] Growth curves were measured under the same conditions by recording the optical density at 595 nm (OD595) over 20 h using a Synergy 2.0 plate reader (BioTeck, Winooski, VT, USA).

[3] = test system: S. aureus mutant strain R8.1; experiment: microbe, parasite or virus in culture; type: cell-based, Staphylococcus aureus; conditions: for MIC: 24 h
Experimental: as §1, §2

[4] = test system: S. aureus ATCC6538P (wt); experiment: microbe, parasite or virus in culture; type: cell-based, Staphylococcus aureus; conditions: 24 h
Experimental: as §1, §2

[5] = class II lantibiotics; ref [29],[30],[31],[32]; cited from earlier work
Excerpt: A few studies have identified the molecular targets of lanthipeptides. […] Two-peptide lantibiotics, ...

[6] = test system: neuropathic pain; conditions: ref [7]; cited from earlier work
Excerpt: (§3) NAI-112 is a labionine (Lab)-containing lanthipeptide with a glycosylated tryptophan residue and an unusual methyl-Lab bridge. It was discovered in a phenotypic screening program for inhibitors of bacterial cell wall biosynthesis. […] At the time of its discovery, there was only one precedent of Lab-containing lanthipeptides, the labyrinthopeptins. In particular, despite having unrelated amino acid sequences, NAI-112 and labyrinthopeptin A2 share a similar ri ...

[7] = test system: virus; conditions: ref [7]; cited from earlier work
Excerpt: as §3

[8] = test system: TRPV1; conditions: ref [24], cited from earlier work
Excerpt: The results from the lipidomic experiments in mice, from the binding assay analyzed in MS and from the analysis of the S. aureus mutants resistant to NAI-112, are consistent with the hypothesis that NAI-112 binds to one or more phosphate-containing lipids and, by doing so, interferes with the processing of these lipids by relevant enzymes. In mice, this interference translates in lower LPA levels.

[9] = test system: TRPV1; conditions: cited from earlier work
Excerpt: In mice, this interference translates in lower LPA levels.

[10] = class I lanthipeptides, followed by pore formation or membrane disruption, ref [25],[26],[27]

## lacticin 3147
[1]; through mersacidin-like component, ref [33]
  complex with lipid II: form a complex with lipid II

## ramoplanin
[2]; R15.5
  shift in MIC relative to wt, in words: modest but consistent shift
[2]; R15.5, in the presence of 0.02% BSA, MHBC medium, 1 × 10^5 CFU/mL, 37 °C
  MIC: 0.25 µg/mL
[2]; in the presence of 0.02% BSA
  MIC Ratio (R15.1 to wt): 4
[3]; R8.1
  shift in MIC relative to wt, in words: modest but consistent shift
[3]; R8.1, in the presence of 0.02% BSA, MHBC medium, 1 × 10^5 CFU/mL, 37 °C
  MIC: 0.25 µg/mL
[4]; wt, in the presence of 0.02% BSA, MHBC medium, 1 × 10^5 CFU/mL, 37 °C
  MIC: 0.06 µg/mL
[1]; ref [14],[15]
  binding to lipid II: bind to the essential peptidoglycan precursor lipid II

## nisin
[1]; [10]
  binding to lipid II: bind to lipid II
[1]; in membranes of bacterial cells, ref [34]
  binding to pyrophosphate cage of lipid II: binding of nisin to the pyrophosphate cage of lipid II

## CO[C@H]1/C=C/O[C@@]2(C)Oc3c(C)c(O)c4c(O)c(c(/C=N/N5CCN(C)CC5)c(O)c4c3C2=O)NC(=O)/C(C)=C\C=C\[C@H](C)[C@H](O)[C@@H](C)[C@@H](O)[C@@H](C)[C@H](OC(C)=O)[C@@H]1C [Rifampicin, rifampicin]
[2]; Staphylococcus aureus
  MIC: 0.004 µg/mL
[2]
  MIC Ratio (R15.1 to wt): 1
[3]; Staphylococcus aureus
  MIC: 0.004 µg/mL
[4]; Staphylococcus aureus, ATCC6538P, wt, MHBC medium, 1 × 10^5 CFU/mL, 37 °C, broth microdilution (CLSI), read-out: MIC
  MIC: 0.004 µg/mL

## cinnamycin
[5]
  binding to phosphatidylethanolamine-containing lipids: bind to phosphatidylethanolamine-containing lipids

## CN[C@H](CC(C)C)C(=O)N[C@H]1C(=O)N[C@@H](CC(N)=O)C(=O)N[C@H]2C(=O)N[C@H]3C(=O)N[C@H](C(=O)N[C@H](C(=O)O)c4cc(O)cc(O)c4-c4cc3ccc4O)[C@H](O)c3ccc(c(Cl)c3)Oc3cc2cc(c3O[C@@H]2O[C@H](CO)[C@@H](O)[C@H](O)[C@H]2O[C@H]2C[C@](C)(N)[C@H](O)[C@H](C)O2)Oc2ccc(cc2Cl)[C@H]1O [Vancomycin, vancomycin]
[2]; R15.5
  shift in MIC relative to wt, in words: modest but consistent shift
[2]; R15.5, MHBC medium, 1 × 10^5 CFU/mL, 37 °C, broth microdilution (CLSI)
  MIC: 2 µg/mL
[2]
  MIC Ratio (R15.1 to wt): 4
[3]; R8.1
  shift in MIC relative to wt, in words: modest but consistent shift
[3]; R8.1, MHBC medium, 1 × 10^5 CFU/mL, 37 °C, broth microdilution (CLSI)
  MIC: 1 µg/mL
[4]; wt, MHBC medium, 1 × 10^5 CFU/mL, 37 °C, broth microdilution (CLSI)
  MIC: 0.5 µg/mL
[1]; ref [14],[15]
  binding to lipid II: bind to the essential peptidoglycan precursor lipid II

## duramycin
[5]
  binding to phosphatidylethanolamine-containing lipids: bind to phosphatidylethanolamine-containing lipids

## gallidermin
[1]; [10]
  binding to lipid II: bind to lipid II

## mersacidin
[1]; class II lantibiotics, ref [28]
  binding to lipid II: bind to lipid II

## CC[C@H]1OC(=O)[C@H](C)[C@@H](O[C@H]2C[C@@](C)(OC)[C@@H](O)[C@H](C)O2)[C@H](C)[C@@H](O[C@@H]2O[C@H](C)C[C@H](N(C)C)[C@H]2O)[C@](C)(O)C[C@@H](C)C(=O)[C@H](C)[C@@H](O)[C@]1(C)O [Erythromycin, erythromycin]
[2]; Staphylococcus aureus
  MIC: 0.125 µg/mL
[2]
  MIC Ratio (R15.1 to wt): 1
[3]; Staphylococcus aureus
  MIC: 0.125 µg/mL
[4]; Staphylococcus aureus, ATCC6538P
  MIC: 0.125 µg/mL

## labyrinthopeptin A2
[6]
  activity in a neuropathic pain model: highly active
[7]
  antiviral activity: moderate antiviral activity

## lysophosphatidic acid [LPA]
[8]; Trpv1-null animals
  acute pain-like behaviors: substantially reduced
[8]; control mice
  acute pain-like behaviors: produces acute pain-like behaviors
[9]; ref [10],[11]
  TRPV1 receptor activation: activates the TRPV1 receptor
[9]; ref [24]
  direct binding to TRPV1 ion channel: LPA binding directly to an ion channel

Source: paper PMC8624038, “Understanding the Mechanism of Action of NAI-112, a Lanthipeptide with Potent Antinociceptive Activity” (Molecules, 2021)
